Assays:
[1] = Acute toxicity in the mouse by the I.P. route; type: in vivo; settings: for LD50: read-out: DL-50 (lethal dose involving the death of half of the animals)
Source text: The acute toxicity was studied in the mouse by the I.P. route. It is expressed in the form of DL-50 (lethal dose involving the death of half of the animals) or DL-0 (maximum non-lethal dose).

[2] = Anti-hypoxic activity: survival to hypoxia (nitrogen-oxygen 95:5); type: in vivo, mouse (Swiss male); settings: I.P., 1/10th of LD-50 or 100 mg/kg when LD-0 ≥ 800 mg/kg; up to 15 minutes; mouse
Description: The experiment is carried out on batches of 20 Swiss male mice weighing from 20 to 30 g. Each product to be tested is administered to the mice by intraperitoneal route at a dose corresponding to 1/10th of the LD-50 or at a dose of 100 mg/kg when the LD-0 is higher than or equal to 800 mg/kg. The mice are placed in a nitrogen-oxygen (95:5) v/v atmosphere. The survival time of the mice is then measured up to 15 minutes maximum.
The results shown in Table VII are expressed in percentage of survival with respect to a non-treated control batch and a batch treated with an anti-hypoxic reference product [specialty known under the trade name of "Duxil" and which is constituted by a mixture of Almitrine bis-methanesulfonate and of Raubasine in the weight ratio 3:1], the anti-hypoxic reference product being administered at the dose of 18 mg/kg I.P.

[3] = Anti-ulcer activity: ulcer caused by aspirin; type: in vivo, rat (male Wistar); settings: 100 mg/kg I.P.; aspirin 192 mg/kg per os; standardised to control batch and cimetidine (index 1)
Description: The experiment is carried out on male Wistar rats of 180 to 200 g. The products to be tested are administered at 100 mg/kg I.P. (unless indicated to the contrary in Table IV).
At t=0, the rats are made to fast and a first administration of the product to be tested is made.
At t=18 hours, 2 ml of an ulcer-forming suspension with 192 mg of aspirin/kg are administered per os then a second administration of the product to be tested is made.
At t=22 hours, the animals are sacrificed and the ulcers are marked as follows: small point-like ulcers: mark 1 more extensive ulcers: mark 3 highly extensive or very deep ulcers: mark 9
This marking is standardised with respect to a control batch and to cimetidine (a reference product) to which index 1 has been allocated.

Compound	Survival (survival percentage to hypoxic aggression) [2]	Ulcer index [3]	DL-0 (maximum non-lethal dose) ([1]; I.P.)	also measured
CC(=O)N[C@H]1[C@H](Oc2ccc(C(=O)c3ccccc3C)cc2)O[C@H](CO)[C@@H](O)[C@@H]1O [Example 121]	+ (from 30 to 49%)	0.39		DL-0 (maximum non-lethal dose) ([1]; in vivo, ip): > 800 mg/kg IP
Cc1cc(C(=O)c2ccc(Cl)cc2)cc(C)c1O[C@@H]1OC[C@@H](O)[C@H](O)[C@H]1O [Example 22]		1.46		LD50 ([1]; in vivo, ip, I.P.): 500 mg/kg
CC(=O)N[C@H]1[C@H](Oc2ccc(C(=O)c3ccccc3C)cc2C)O[C@H](CO)[C@@H](O)[C@@H]1O [Example 122]	+ (from 30 to 49%)	0.91		DL-0 (maximum non-lethal dose) ([1]; in vivo, ip): > 800 mg/kg IP
O=C(c1ccc(O[C@@H]2OC[C@@H](O)[C@H](O)[C@H]2O)cc1)c1cccc(C(F)(F)F)c1 [Example 13]	++ (from 50 to 79%)	0.46		LD50 ([1]; in vivo, ip, I.P.): 170 mg/kg
CC(=O)O[C@@H]1[C@@H](OC(C)=O)[C@H](Oc2ccc(C(=O)c3ccc(N=C=S)cc3)cc2)OC[C@H]1OC(C)=O [Example 42]			> 800 mg/kg IP	
CC(=O)N[C@H]1[C@H](Oc2ccc(C(O)c3ccc(C)cc3)cc2)O[C@H](CO)[C@@H](O)[C@@H]1O (stereo partly shown) [Example 128]	++ (from 50 to 79%)			DL-0 (maximum non-lethal dose) ([1]; in vivo, ip): > 800 mg/kg IP
CC(=O)N[C@H]1[C@H](Oc2ccc(C(=O)c3ccc(C)cc3)cc2)O[C@H](CO)[C@@H](O)[C@@H]1O [Example 111]	++ (from 50 to 79%)	0.42		LD50 ([1]; in vivo, ip, I.P.): 750 mg/kg
CC(=O)N[C@H]1[C@H](Oc2c(C)cc(C(=O)c3ccccc3C)cc2C)O[C@H](COS(=O)(=O)O)[C@@H](OS(=O)(=O)O)[C@@H]1OS(=O)(=O)O [Example 68]			> 800 mg/kg IP	
OC(c1ccccc1)c1cccc(O[C@@H]2OC[C@@H](O)[C@H](O)[C@H]2O)c1 (stereo partly shown) [Example 117]	++ (from 50 to 79%)	0.59		LD50 ([1]; in vivo, ip, I.P.): 1000 mg/kg
Cc1ccc(C(=O)c2cccc(O[C@@H]3OC[C@@H](O)[C@H](O)[C@H]3O)c2)cc1 [Example 49]		1.21	> 800 mg/kg IP	
Cc1ccccc1C(=O)c1cccc(O[C@@H]2OC[C@@H](O)[C@H](O)[C@H]2O)c1 [Example 52]			> 800 mg/kg IP	
Cc1ccc(C(O)c2ccc(O[C@@H]3OC[C@@H](O)[C@H](O)[C@H]3O)cc2)cc1 (stereo partly shown) [Example 90]		0.57	> 800 mg/kg IP	
CC(=O)O[C@@H]1[C@@H](OC(C)=O)[C@H](Oc2ccc(C(=O)c3ccc([N+](=O)[O-])cc3)cc2)OC[C@H]1OC(C)=O [Example 41, [4-(4-nitrobenzoyl)-phenyl]-2,3,4-tri-(O-acetyl)-β-D-xylopyranoside]	+++ (higher than or equal to 80%)	0.40		DL-0 (maximum non-lethal dose) ([1]; in vivo, ip): > 800 mg/kg IP
Cc1cc(O)ccc1C(=O)c1cc(C)c(O[C@@H]2O[C@H](CO)[C@@H](O)[C@H](O)[C@H]2O)c(C)c1 [Example 27]		0.42	> 800 mg/kg IP	
O=C(c1ccc(C(F)(F)F)cc1)c1cccc(O[C@@H]2OC[C@@H](O)[C@H](O)[C@H]2O)c1 [Example 53, [3-(4-trifluoromethylbenzoyl)-phenyl]-β-D-xylopyranoside]		0.64		LD50 ([1]; in vivo, ip, I.P.): 550 mg/kg
OC(c1ccc(Br)cc1)c1ccc(O[C@@H]2OC[C@@H](O)[C@H](O)[C@H]2O)cc1 (stereo partly shown) [Example 95]		0.52	> 800 mg/kg IP	
COC(=S)Nc1ccc(C(=O)c2ccc(O[C@@H]3OC[C@@H](O)[C@H](O)[C@H]3O)cc2)cc1 [Example 65]			> 800 mg/kg IP	
OC(c1ccc(O[C@@H]2OC[C@@H](O)[C@H](O)[C@H]2O)cc1)c1cccc(C(F)(F)F)c1 (stereo partly shown) [Example 93]			> 800 mg/kg IP	
O=C(c1ccc(Cl)cc1)c1ccc(O[C@@H]2O[C@H](CO)[C@@H](O)[C@H](O)[C@H]2O)cc1 [Example 124]	+ (from 30 to 49%)			DL-0 (maximum non-lethal dose) ([1]; in vivo, ip): > 800 mg/kg IP
COc1cc(C(=O)c2ccc(O[C@@H]3OC[C@@H](O)[C@H](O)[C@H]3O)cc2)cc(OC)c1OC [Example 33]		0.46	> 800 mg/kg IP	

Compound	Survival (survival percentage to hypoxic aggression) [2]	Ulcer index [3]	DL-0 (maximum non-lethal dose) ([1]; I.P.)	also measured
Cc1cc(C)c(C(=O)c2ccc(O[C@@H]3OC[C@@H](O)[C@H](O)[C@H]3O)cc2)c(C)c1 [Example 32]		0.54	> 800 mg/kg IP	
Cc1cc(C(=O)c2ccccc2)cc([N+](=O)[O-])c1O[C@@H]1OC[C@@H](O)[C@H](O)[C@H]1O [Example 25]		0.54		LD50 ([1]; in vivo, ip, I.P.): 330 mg/kg
CC(=O)O[C@@H]1[C@@H](OC(C)=O)[C@H](Oc2ccc(C(=O)c3cccc([N+](=O)[O-])c3)cc2)OC[C@H]1OC(C)=O [Example 80]		1.00	> 800 mg/kg IP	
Cc1ccc(C(O)c2cccc(O[C@@H]3OC[C@@H](O)[C@H](O)[C@H]3O)c2)cc1 (single isomer, unassigned) [Example 107]				DL-50 (lethal dose involving the death of half of the animals) ([1]; I.P.): 550 mg/kg IP
COc1cc(C(=O)c2ccc(O[C@@H]3OC[C@@H](OC(C)=O)[C@H](OC(C)=O)[C@H]3OC(C)=O)cc2)cc(OC)c1O [Example 84]			> 800 mg/kg IP	
O=C(c1ccc(Cl)cc1)c1cccc(O[C@@H]2OC[C@@H](O)[C@H](O)[C@H]2O)c1 [Example 48]		0.75		LD50 ([1]; in vivo, ip, I.P.): 220 mg/kg
Cc1ccc(C(=O)c2ccc(O[C@@H]3O[C@H](CO)[C@@H](O)[C@H](O)[C@H]3O)cc2)cc1 [Example 127]	++ (from 50 to 79%)			LD50 ([1]; in vivo, ip, I.P.): 700 mg/kg
O=[N+]([O-])c1ccc(C(O)c2ccc(O[C@@H]3O[C@H](CO)[C@@H](O)[C@H](O)[C@H]3O)cc2)cc1 (stereo partly shown) [Example 129]			> 800 mg/kg IP	
O=C(c1ccc(O[C@@H]2OC[C@@H](O)[C@H](O)[C@H]2O)cc1)c1ccc(Cl)cc1Cl [Example 31]		1.04	> 800 mg/kg IP	
O=C(c1ccc(O[C@@H]2O[C@H](CO)[C@H](O)[C@H](O)[C@H]2O)cc1)c1ccc([N+](=O)[O-])cc1 [Example 20]		0.62	> 800 mg/kg IP	
CC(=O)O[C@@H]1[C@@H](OC(C)=O)[C@H](Oc2cccc(C(=O)c3ccccc3)c2)OC[C@H]1OC(C)=O [Example 83]	++ (from 50 to 79%)			DL-0 (maximum non-lethal dose) ([1]; in vivo, ip): > 800 mg/kg IP
CC(=O)N[C@H]1[C@H](Oc2ccc(C(=O)c3ccccc3Cl)cc2)O[C@H](CO)[C@@H](O)[C@@H]1O [Example 120]	+++ (higher than or equal to 80%)			DL-0 (maximum non-lethal dose) ([1]; in vivo, ip): > 800 mg/kg IP
O=C(c1ccccc1)c1ccc(O[C@@H]2O[C@H](CO)[C@@H](O)[C@H](O)[C@H]2O)cc1 [Example 126]	+ (from 30 to 49%)			DL-0 (maximum non-lethal dose) ([1]; in vivo, ip): > 800 mg/kg IP
CC(=O)O[C@@H]1[C@@H](OC(C)=O)[C@H](Oc2ccc(C(=O)c3ccc(Cl)cc3Cl)cc2)OC[C@H]1OC(C)=O [Example 74]		0.91	> 800 mg/kg IP	
CC(=O)O[C@@H]1[C@@H](OC(C)=O)[C@H](Oc2ccc(C(=O)c3c(C)cc(C)cc3C)cc2)OC[C@H]1OC(C)=O [Example 73]		0.52	> 800 mg/kg IP	
Cc1cc(C(=O)c2ccc(Cl)cc2)ccc1O[C@@H]1OC[C@@H](O)[C@H](O)[C@H]1O [Example 28]	++ (from 50 to 79%)			DL-0 (maximum non-lethal dose) ([1]; in vivo, ip): > 800 mg/kg IP
CC(=O)O[C@@H]1[C@@H](OC(C)=O)[C@H](Oc2cccc(C(=O)c3ccc(Cl)cc3)c2)OC[C@H]1OC(C)=O [Example 82]			> 800 mg/kg IP	
O=C(c1ccc(O[C@@H]2OC[C@@H](OS(=O)(=O)O)[C@H](OS(=O)(=O)O)[C@H]2OS(=O)(=O)O)cc1)c1cccc([N+](=O)[O-])c1 [Example 72]		0.47		LD50 ([1]; in vivo, ip, I.P.): 650 mg/kg
CC(=O)O[C@@H]1[C@@H](OC(C)=O)[C@H](Oc2ccc(C(=O)c3ccccc3[N+](=O)[O-])cc2)OC[C@H]1OC(C)=O [Example 78]			> 800 mg/kg IP	
CC(=O)N[C@H]1[C@H](Oc2c(C)cc(C(=O)c3c(C)cccc3C)cc2C)O[C@H](CO)[C@@H](O)[C@@H]1O [Example 37]		1.02		LD50 ([1]; in vivo, ip, I.P.): 600 mg/kg

Source: patent US4432973A, “Benzoyl- and α-hydroxybenzyl-phenyl-glycosides and application thereof in therapeutics” (Societe de Recherches Industrielles (S.O.R.I.), priority 1980, dated 1984)
